The text below walks through data of patent US9315451B2, “Tetracycline compounds” (priority 2009, dated 2016).

Common to all, as to type: in vivo
Data set [1] relates to S. aureus Smith (ATCC 13709). The experiment in a line: Mouse systemic infection (septicemia) model, S. aureus Smith. The note with it: Staphylococcus aureus, CD-1 female mice; for responders at 3 mg/kg: ATCC13709, iv, IV 3 mg/kg one hour post infection, read-out: SA Smith septicemia survival IV (3 mg/kg); for responders at 3 mg/kg / responders at 30 mg/kg: 48 h, survival at 48 hours; for responders at 30 mg/kg: ATCC13709, po, PO 30 mg/kg one hour post infection, read-out: SA Smith septicemia survival PO (30 mg/kg); for ED50: ATCC13709, dose that prevents 50% of the mice from death, 48 hours. The procedure: Mouse Systemic Infection Protocol-S. aureus Smith Septicemia
Compounds were screened for antibacterial activity in vivo in a mouse systemic infection (septicemia) model. In the model, CD-1 female mice (18-22 grams) were injected IP with a S. aureus Smith (ATCC 13709) inoculum that results in 0% survival within 24 to 48 hours. The bacterial dose required to achieve this effect was previously established through virulence studies. At one hour post infection, mice received either […] IV or […] PO. Typically, six mice were treated per dose group. Animal survival was assessed and recorded for 48 hours. Percent survival at 48 hours was recorded and PD50 (mg/kg) was determined for each compound tested.

Data set [2] has as its system Uropathogenic E. coli EC200. The data set can be described thus: Murine kidney infection model, uropathogenic E. coli EC200. The following applies: Escherichia coli, po, 36 h, BALB/c mice, read-out: EC200 UTI PO, log10 reduction in CFUs in the kidney versus untreated controls; for log reduction at 2 mg/kg: PO 2 mg/kg at 12 and 24 hours post infection. The procedure: (§1) Kidney Infection Models for Uropathogenic E. coli EC200 and K. pneumoniae ESBL Isolate KP453
Compounds were tested in a BALB/c murine kidney infection model challenged with tetracycline-resistant E. coli strain uropathogenic […] via intravenous injection. […] For IV administration test compound was dosed at 3 mg/kg. Thirty-six hours following initiation of treatment, mice were euthanized and bacterial reduction in the kidney was quantified by plating kidney homogenates. Results are reported in Table D as log10 reduction in colony forming units (CFUs) in the kidney versus untreated controls (receiving no test compound).

For data set [3], the system named is K. pneumoniae ESBL Isolate KP453. The experiment in a line: Murine kidney infection model, K. pneumoniae ESBL isolate KP453. The following applies: Klebsiella pneumoniae, po, 36 h, BALB/c mice, PO 50 mg/kg at 9 and 24 hours post infection; read-out: KP453 ESBL UTI PO, log10 reduction in CFUs in the kidney versus untreated controls. On the procedure: as §1
Compounds were also tested in BALB/c murine kidney infection model challenged with levofloxacin-resistant, ESBL^+ strain KP453 via intravenous injection with 2% carageenen. At 9 and 24 hours post infection mice were treated orally with 50 mg/kg of test compound. For IV administration, test compounds were dosed at 20 mg/kg. At 36 hours following initiation of treatment, mice were euthanized and bacterial reduction in the kidney was quantified by plating homogenates. Results are reported in Table D as log10 reduction in colony forming units (CFUs) in the kidney versus untreated controls (receiving no test compound).

Data set [4] in a line: Pharmacokinetic studies in rats. The note with it: rat, plasma, male Sprague Dawley rats, fasted; for clearance: read-out: Cl, IV Rat PK; for bioavailability: oral 10 mg/kg vs IV 1 mg/kg, read-out: % F (oral bioavailability), Oral Rat PK; for Cmax: read-out: Cmax, IV Rat PK. On the procedure:
Pharmacokinetic Studies in Rats Test compounds were evaluated in fasted (no food for 18 hours prior to dosing) male Sprague Dawley rats (3 animals per group) by administration of 1 mg/kg intravenously into the jugular vein and […] by oral gavage. Ten plasma samples were drawn for each dosing route up to 24 hours into heparin-coated vacutainer tubes. The plasma concentrations of the test compounds were quantified by LC/MS/MS using an internal standards. WinNONLIN was used to determine PK parameters ±standard deviation (AUC, Cmax, CL, Vss and % oral bioavailabilty (% F) and are set forth in Table F.

Setting [5] is: PO, read-out: SA Smith septicemia PD50 PO.
The mark [6] stands for this setting: IV 1 mg/kg, read-out: AUC, IV Rat PK.
Where [7] appears, read: oral gavage 10 mg/kg, read-out: AUC, Oral Rat PK.
The mark [8] stands for this setting: IV, read-out: SA Smith septicemia PD50 IV.

Where two headings read alike, the source gives them in different places.

Turning to `CN(C)[C@@H]1C(O)=C(C(N)=O)C(=O)[C@@]2(O)C(O)=C3C(=O)c4c(O)cc(CN5CCCC5(C)C)c(Cl)c4C[C@H]3C[C@@H]12` [Compound S15-13-4], in data set [1], the responders at 3 mg/kg was 100% and the responders at 30 mg/kg came out at 100%. Further, the ED50 in data set [1] (setting [5]) stood at 6.2 mg/kg. In addition, the log reduction at 2 mg/kg in data set [2] stood at 3.17. The log reduction at 50 mg/kg in data set [3] came to 1.69.
As for `COc1c(CN2[C@H](C)CCC[C@@H]2C)cc(O)c2c1C[C@H]1C[C@H]3[C@H](N(C)C)C(O)=C(C(N)=O)C(=O)[C@@]3(O)C(O)=C1C2=O` [Compound S24-9-25], in data set [1], the responders at 3 mg/kg turned out to be 100% and the responders at 30 mg/kg is 100%. The log reduction at 2 mg/kg in data set [2] is 2.99. The log reduction at 50 mg/kg in data set [3] came out at 1.71.
For `CN(C)[C@@H]1C(O)=C(C(N)=O)C(=O)[C@@]2(O)C(O)=C3C(=O)c4c(O)cc(CN5CCCC5)c(F)c4C[C@H]3C[C@@H]12` [Compound S3-5-5], in data set [1], the responders at 3 mg/kg was 100% and the responders at 30 mg/kg stood at 100%. In addition, the log reduction at 2 mg/kg in data set [2] amounted to 2.26. In addition, the log reduction at 50 mg/kg in data set [3] turned out to be 1.01.
As for `C[C@H]1CCCN1Cc1cc(O)c2c(c1Cl)C[C@H]1C[C@H]3[C@H](N(C)C)C(O)=C(C(N)=O)C(=O)[C@@]3(O)C(O)=C1C2=O` [Compound S15-13-194], in data set [1], the responders at 3 mg/kg worked out at 100% and the responders at 30 mg/kg was 100%. In data set [2], the log reduction at 2 mg/kg is 3.44. The log reduction at 50 mg/kg in data set [3] was determined as 2.18.
For `CCN(Cc1cc(O)c2c(c1Cl)C[C@H]1C[C@H]3[C@H](N(C)C)C(O)=C(C(N)=O)C(=O)[C@@]3(O)C(O)=C1C2=O)[C@H](C)C(C)(C)C` [Compound S15-13-122], the log reduction at 2 mg/kg in data set [2] worked out at 2.64. Also, in data set [3], the log reduction at 50 mg/kg turned out to be 1.84.
By bioavailability is commonly meant dose-corrected exposure relative to a reference, in per cent. The term AUC denotes concentration integrated over time. By Cmax is commonly meant the peak of the concentration-time curve. As for `CN(C)[C@@H]1C(O)=C(C(N)=O)C(=O)[C@@]2(O)C(O)=C3C(=O)c4c(O)cc(CN(C)C(C)(C)C)c(Cl)c4C[C@H]3C[C@@H]12` [Compound S15-13-15], in data set [1], the responders at 3 mg/kg came to 100% and the responders at 30 mg/kg is 100%. In data set [1] (setting [5]), the ED50 came to 3.5 mg/kg. Further, the log reduction at 2 mg/kg in data set [2] was determined as 2.82. In addition, the log reduction at 50 mg/kg in data set [3] was found to be 1.45. Besides, in data set [4] (IV 1 mg/kg), the clearance stood at 15.4 mL/min/kg and the Cmax came out at 154 ng/mL. Besides, the bioavailability in data set [4] was determined as 21%. The AUC in data set [4] (setting [6]) was found to be 1100 ng·h/mL. In addition, in data set [4] (setting [7]), the AUC is 2260 ng·h/mL.
Turning to `CN(C)[C@@H]1C(O)=C(C(N)=O)C(=O)[C@@]2(O)C(O)=C3C(=O)c4c(O)cc(CN5CCCC5(C)C)c(F)c4C[C@H]3C[C@@H]12` [Compound S2-4-12], the responders at 3 mg/kg in data set [1] was determined as 100%. In data set [1], the responders at 30 mg/kg was determined as 100%. Besides, the ED50 in data set [1] (setting [8]) came to 0.69 mg/kg; in data set [1] (setting [5]), 2.1 mg/kg. Besides, the log reduction at 2 mg/kg in data set [2] came out at 2.51. The log reduction at 50 mg/kg in data set [3] came to 2.15. For the same compound, the clearance in data set [4] (IV 1 mg/kg) came out at 21.3 mL/min/kg. In data set [4], the bioavailability worked out at 14.6%. Besides, the AUC was 754 ng·h/mL in data set [4] (setting [6]) and 1160 ng·h/mL in data set [4] (setting [7]). Besides, in data set [4] (IV 1 mg/kg), the Cmax turned out to be 126 ng/mL.
With `COc1c(CN2CCCC[C@@H]2C)cc(O)c2c1C[C@H]1C[C@H]3[C@H](N(C)C)C(O)=C(C(N)=O)C(=O)[C@@]3(O)C(O)=C1C2=O` [Compound S24-9-17], in data set [1], the responders at 3 mg/kg came to 100% and the responders at 30 mg/kg was determined as 100%. In addition, in data set [2], the log reduction at 2 mg/kg was 2.61. The log reduction at 50 mg/kg in data set [3] is 2.41.
Take `CN(C)[C@@H]1C(O)=C(C(N)=O)C(=O)[C@@]2(O)C(O)=C3C(=O)c4c(O)cc(CN(C)C(C)(C)C5CC5)c(F)c4C[C@H]3C[C@@H]12` [Compound S2-4-29]: in data set [1], the responders at 3 mg/kg worked out at 100% and the responders at 30 mg/kg stood at 100%. Moreover, the ED50 in data set [1] (setting [8]) is 1 mg/kg. For the same compound, the ED50 in data set [1] (setting [5]) came to 3.5 mg/kg. Further, in data set [4] (IV 1 mg/kg), the clearance amounted to 26.5 mL/min/kg and the Cmax stood at 112 ng/mL. Besides, the bioavailability in data set [4] was determined as 25.4%. In addition, the AUC in data set [4] (setting [6]) was found to be 616 ng·h/mL. Besides, in data set [4] (setting [7]), the AUC worked out at 1600 ng·h/mL.
Turning to `CN(C)[C@@H]1C(O)=C(C(N)=O)C(=O)[C@@]2(O)C(O)=C3C(=O)c4c(O)cc(CN5CCCC5)c(Cl)c4C[C@H]3C[C@@H]12` [Compound S15-13-187], in data set [1], the responders at 3 mg/kg turned out to be 100% and the responders at 30 mg/kg amounted to 100%. In addition, the log reduction at 3 mg/kg in data set [2] (PO @ 3 mpk) is 3.46.
As to `CN(C)[C@@H]1C(O)=C(C(N)=O)C(=O)[C@@]2(O)C(O)=C3C(=O)c4c(O)cc(CN5CCCC5)c(C(F)(F)F)c4C[C@H]3C[C@@H]12` [Compound S25-11-1], in data set [1], the responders at 3 mg/kg came out at 100% and the responders at 30 mg/kg came out at 100%. For the same compound, the log reduction at 2 mg/kg in data set [2] was 3.97. The log reduction at 50 mg/kg in data set [3] came out at 1.84.
For the compound `CC1CCN(Cc2cc(O)c3c(c2F)C[C@H]2C[C@H]4[C@H](N(C)C)C(O)=C(C(N)=O)C(=O)[C@@]4(O)C(O)=C2C3=O)CC1` [Compound S2-4-19], the responders at 3 mg/kg in data set [1] amounted to 100%. The responders at 30 mg/kg in data set [1] came to 83%. Further, the ED50 in data set [1] (setting [8]) was 1 mg/kg; in data set [1] (setting [5]) it was 14.3 mg/kg. For the same compound, the log reduction at 2 mg/kg in data set [2] was found to be 1.91. Besides, the log reduction at 50 mg/kg in data set [3] was 1.27. Also, in data set [4] (IV 1 mg/kg), the clearance turned out to be 5 mL/min/kg. Further, the bioavailability in data set [4] came out at 14.9%. Also, the AUC was found to be 3320 ng·h/mL in data set [4] (setting [6]) and 4980 ng·h/mL in data set [4] (setting [7]). For the same compound, the Cmax in data set [4] (IV 1 mg/kg) came out at 518 ng/mL.
Take `C[C@H]1CCCCN1Cc1cc(O)c2c(c1F)C[C@H]1C[C@H]3[C@H](N(C)C)C(O)=C(C(N)=O)C(=O)[C@@]3(O)C(O)=C1C2=O` [Compound S2-4-65]: in data set [1], the responders at 3 mg/kg is 100% and the responders at 30 mg/kg was 100%. Moreover, the ED50 in data set [1] (setting [5]) came out at 8.4 mg/kg. Besides, the log reduction at 2 mg/kg in data set [2] came out at 3.18. The log reduction at 12 mg/kg in data set [2] (PO @ 12 mpk) amounted to 4.61. In addition, in data set [3], the log reduction at 50 mg/kg was 2.28.
